Common to all, as to assay type: functional
Experiment [1] deals with Staphylococcus aureus. Briefly: Antibacterial activity against Staphylococcus aureus ATCC 29213 measured after 24 hrs by susceptibility assay.
Experiment [2] relates to Staphylococcus epidermidis. Briefly: Antibacterial activity against Staphylococcus epidermidis ATCC 12228 measured after 24 hrs by susceptibility assay.
Experiment [3] concerns Staphylococcus aureus. Put plainly: Antibacterial activity against methicillin-resistant Staphylococcus aureus measured after 24 hrs by susceptibility assay.
In experiment [4] the test system is Staphylococcus aureus. Put plainly: Antibacterial activity against Staphylococcus aureus ATCC 6538 measured after 24 hrs by susceptibility assay.

Each structure is given as a SMILES string. Converted amounts (≈) assume the structure as drawn. A value given as a limit tells only on which side of the number the result lay.

A word on the MIC: it is the lowest concentration found to suppress growth. Read a low MIC as inhibition by little substance. As to `CC1(C)CC[C@]2(C(=O)NS(=O)(=O)c3ccccc3)CC[C@]3(C)C(=CC[C@@H]4[C@@]5(C)Cc6c([nH]c7ccc(F)cc67)C(C)(C)[C@@H]5CC[C@]43C)[C@@H]2C1`, the MIC in experiment [1], in experiment [2], in experiment [3] and in experiment [4] was greater than 256 µM throughout.

On to `CC1(C)CC[C@]2(C(=O)Nc3ccc(-c4ccccc4)cc3)CC[C@]3(C)C(=CC[C@@H]4[C@@]5(C)Cc6c([nH]c7cccc(C(=O)O)c67)C(C)(C)[C@@H]5CC[C@]43C)[C@@H]2C1`, for which the minimal inhibitory concentration (MIC) came out at 128 µM (≈ 92.5 µg/mL) in experiment [1], 64 µM (≈ 46.3 µg/mL) in experiment [2], 256 µM (≈ 185 µg/mL) in experiment [3] and 32 µM (≈ 23.1 µg/mL) in experiment [4].

Consider `CC1(C)CC[C@]2(C(=O)NS(=O)(=O)c3ccc(Cl)cc3)CC[C@]3(C)C(=CC[C@@H]4[C@@]5(C)Cc6c([nH]c7cccc(C(=O)O)c67)C(C)(C)[C@@H]5CC[C@]43C)[C@@H]2C1`, for which the MIC in experiment [1] worked out at 2 µM (≈ 1.49 µg/mL); in experiment [2], 2 µM (≈ 1.49 µg/mL); in experiment [3] it was 2 µM (≈ 1.49 µg/mL); in experiment [4] it was 1 µM (≈ 0.745 µg/mL).

In the case of `CN1CCN(C(=O)[C@]23CCC(C)(C)C[C@H]2C2=CC[C@@H]4[C@@]5(C)CCC(=O)C(C)(C)[C@@H]5CC[C@@]4(C)[C@]2(C)CC3)CC1`, the MIC in experiment [1] was 32 µM (≈ 17.2 µg/mL); in experiment [2], 64 µM (≈ 34.4 µg/mL); in experiment [3] it was greater than 256 µM; in experiment [4] it was 64 µM (≈ 34.4 µg/mL).

For `CC1(C)CC[C@]2(C(=O)O)CC[C@]3(C)C(=CC[C@@H]4[C@@]5(C)CC[C@H](O)C(C)(C)[C@@H]5CC[C@]43C)[C@@H]2C1` [OLEANOLIC_ACID], the MIC in experiment [1], in experiment [2], in experiment [3] and in experiment [4] was 32 µM (≈ 14.6 µg/mL) in each case.

As for `Cc1ccc(S(=O)(=O)NC(=O)[C@]23CCC(C)(C)C[C@H]2C2=CC[C@@H]4[C@@]5(C)CCC(=O)C(C)(C)[C@@H]5CC[C@@]4(C)[C@]2(C)CC3)cc1`, the MIC in experiment [1], in experiment [2], in experiment [3] and in experiment [4] was greater than 256 µM in each case.

For `CC1(C)CC[C@]2(C(=O)Nc3ccc(-c4ccccc4)cc3)CC[C@]3(C)C(=CC[C@@H]4[C@@]5(C)CCC(=O)C(C)(C)[C@@H]5CC[C@]43C)[C@@H]2C1`, the minimal inhibitory concentration (MIC) in experiment [1], in experiment [2], in experiment [3] and in experiment [4] was greater than 256 µM throughout.

For the molecule `CC1(C)CC[C@]2(C(=O)Nc3ccc(-c4ccccc4)cc3)CC[C@]3(C)C(=CC[C@@H]4[C@@]5(C)Cc6c([nH]c7ccc(C(=O)O)cc67)C(C)(C)[C@@H]5CC[C@]43C)[C@@H]2C1`, the MIC in experiment [1], in experiment [2], in experiment [3] and in experiment [4] was greater than 256 µM each time.

As to `COc1ccc(S(=O)(=O)NC(=O)[C@]23CCC(C)(C)C[C@H]2C2=CC[C@@H]4[C@@]5(C)Cc6c([nH]c7c(C(=O)O)cccc67)C(C)(C)[C@@H]5CC[C@@]4(C)[C@]2(C)CC3)cc1`, the MIC turned out to be 1 µM (≈ 0.741 µg/mL) in experiment [1], 2 µM (≈ 1.48 µg/mL) in experiment [2], 4 µM (≈ 2.96 µg/mL) in experiment [3] and 2 µM (≈ 1.48 µg/mL) in experiment [4].

As for `Cc1ccc(S(=O)(=O)NC(=O)[C@]23CCC(C)(C)C[C@H]2C2=CC[C@@H]4[C@@]5(C)Cc6c([nH]c7ccc(C(=O)O)cc67)C(C)(C)[C@@H]5CC[C@@]4(C)[C@]2(C)CC3)cc1`, the MIC in experiment [1] was 1 µM (≈ 0.725 µg/mL); in experiment [2] it was 1 µM (≈ 0.725 µg/mL); in experiment [3], 2 µM (≈ 1.45 µg/mL); in experiment [4] it was 1 µM (≈ 0.725 µg/mL).

Consider `CC1(C)CC[C@]2(C(=O)NS(=O)(=O)c3ccc(C(=O)O)cc3)CC[C@]3(C)C(=CC[C@@H]4[C@@]5(C)Cc6c([nH]c7cccc(C(=O)O)c67)C(C)(C)[C@@H]5CC[C@]43C)[C@@H]2C1`, for which the MIC turned out to be 128 µM (≈ 96.6 µg/mL) in experiment [1], 256 µM (≈ 193 µg/mL) in experiment [2], 256 µM (≈ 193 µg/mL) in experiment [3] and 64 µM (≈ 48.3 µg/mL) in experiment [4].

Values taken from ChEMBL document CHEMBL5608189, “Design and synthesis of unique indole-benzosulfonamide oleanolic acid derivatives as potent antibacterial agents against MRSA” (Eur J Med Chem, 2024).
